Measurements from the supplement of paper PMC10307832.

How the values were obtained:
Assay in all cases: relative viability (nuclei count vs DMSO), 5 days (fraction); higher = more cells survive
[1] = system: HCC-15
Summary of the method: (§1)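 Lung cancer cell lines were seeded in 1536-well plates and dosed by pin tool the next day, with either a single drug or a fixed anchor-drug dose combined with five library-drug doses (not always all listed) spaced in √10 steps. Five days later, one step fixed the cells and stained their nuclei (final 0.05% Triton X-100, 1% formaldehyde, 1 ug/ml Hoechst), and nuclei were counted on 4× images. Relative viability is the nuclei count in treated wells divided by the count in vehicle wells, and each value is the median of duplicate plates.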

[2] = system: NCI-H1993
Summary of the method: as §1

[3] = system: NCI-H358
Summary of the method: as §1

[4] = system: HARA
Summary of the method: as §1

[5] = system: NCI-H1793
Summary of the method: as §1

[6] = system: COR-L23
Summary of the method: as §1

[7] = system: NCI-H2228
Summary of the method: as §1

[8] = system: HCC-78
Summary of the method: as §1

[9] = system: NCI-H2405
Summary of the method: as §1

[10] = system: SK-LU-1
Summary of the method: as §1

[11] = system: NCI-H2126
Summary of the method: as §1

[12] = system: NCI-H1395
Summary of the method: as §1

[13] = system: LC-2-ad
Summary of the method: as §1

[14] = system: ABC-1
Summary of the method: as §1

[15] = system: NCI-H1944
Summary of the method: as §1

[16] = system: HCC-366
Summary of the method: as §1

[17] = system: HOP-62
Summary of the method: as §1

[18] = system: EMC-BAC-2
Summary of the method: as §1

[19] = system: NCI-H23
Summary of the method: as §1

[20] = system: NCI-H838
Summary of the method: as §1

[21] = system: NCI-H2023
Summary of the method: as §1

O=c1cc(-c2cccc3c2Sc2ccccc2S3)oc(N2CCOCC2)c1 + Cc1nc(NC(=O)N2CCC[C@H]2C(N)=O)sc1-c1ccnc(C(C)(C)C(F)(F)F)c1 [Alpelisib] (partner 2 µM)
relative viability ([1]; first compound 0.08 µM): 0.896
relative viability ([1]; first compound 0.253 µM): 1.05
relative viability ([1]; first compound 0.8 µM): 0.89
relative viability ([1]; first compound 2.53 µM): 0.797
relative viability ([1]; first compound 8 µM): 0.922
relative viability ([2]; first compound 0.08 µM): 0.735
relative viability ([2]; first compound 0.253 µM): 0.687
relative viability ([2]; first compound 0.8 µM): 0.69
relative viability ([2]; first compound 2.53 µM): 0.68
relative viability ([2]; first compound 8 µM): 0.718
relative viability ([3]; first compound 0.08 µM): 0.776
relative viability ([3]; first compound 0.253 µM): 0.824
relative viability ([3]; first compound 0.8 µM): 0.816
relative viability ([3]; first compound 2.53 µM): 0.786
relative viability ([3]; first compound 8 µM): 0.795
relative viability ([4]; first compound 0.08 µM): 0.754
relative viability ([4]; first compound 0.253 µM): 0.748
relative viability ([4]; first compound 0.8 µM): 0.719
relative viability ([4]; first compound 2.53 µM): 0.81
relative viability ([4]; first compound 8 µM): 0.584
relative viability ([5]; first compound 0.08 µM): 0.498
relative viability ([5]; first compound 0.253 µM): 0.782
relative viability ([5]; first compound 0.8 µM): 0.692
relative viability ([5]; first compound 2.53 µM): 0.55
relative viability ([5]; first compound 8 µM): 0.689
relative viability ([6]; first compound 0.08 µM): 0.867
relative viability ([6]; first compound 0.253 µM): 1.15
relative viability ([6]; first compound 0.8 µM): 0.887
relative viability ([6]; first compound 2.53 µM): 0.786
relative viability ([6]; first compound 8 µM): 0.984
relative viability ([7]; first compound 0.08 µM): 0.75
relative viability ([7]; first compound 0.253 µM): 0.846
relative viability ([7]; first compound 0.8 µM): 0.828
relative viability ([7]; first compound 2.53 µM): 0.561
relative viability ([7]; first compound 8 µM): 0.737
relative viability ([8]; first compound 0.08 µM): 0.355
relative viability ([8]; first compound 0.253 µM): 0.319
relative viability ([8]; first compound 0.8 µM): 0.305
relative viability ([8]; first compound 2.53 µM): 0.307
relative viability ([8]; first compound 8 µM): 0.339
relative viability ([9]; first compound 0.08 µM): 0.749
relative viability ([9]; first compound 0.253 µM): 0.777
relative viability ([9]; first compound 0.8 µM): 0.792
relative viability ([9]; first compound 2.53 µM): 0.73
relative viability ([9]; first compound 8 µM): 0.614
relative viability ([10]; first compound 0.08 µM): 1.03
relative viability ([10]; first compound 0.253 µM): 1.12
relative viability ([10]; first compound 0.8 µM): 1.26
relative viability ([10]; first compound 2.53 µM): 0.991
relative viability ([10]; first compound 8 µM): 0.977
relative viability ([11]; first compound 0.08 µM): 0.827
relative viability ([11]; first compound 0.253 µM): 0.822
relative viability ([11]; first compound 0.8 µM): 0.734
relative viability ([11]; first compound 2.53 µM): 0.739
relative viability ([11]; first compound 8 µM): 0.735
relative viability ([12]; first compound 0.08 µM): 1.13
relative viability ([12]; first compound 0.253 µM): 1.13
relative viability ([12]; first compound 0.8 µM): 1.19
relative viability ([12]; first compound 2.53 µM): 0.907
relative viability ([12]; first compound 8 µM): 1.05
relative viability ([13]; first compound 0.08 µM): 0.884
relative viability ([13]; first compound 0.253 µM): 0.908
relative viability ([13]; first compound 0.8 µM): 0.844
relative viability ([13]; first compound 2.53 µM): 0.806
relative viability ([13]; first compound 8 µM): 0.75
relative viability ([14]; first compound 0.08 µM): 1.17
relative viability ([14]; first compound 0.253 µM): 1.14
relative viability ([14]; first compound 0.8 µM): 1.16
relative viability ([14]; first compound 2.53 µM): 0.901
relative viability ([14]; first compound 8 µM): 0.953
relative viability ([15]; first compound 0.08 µM): 0.793
relative viability ([15]; first compound 0.253 µM): 0.939
relative viability ([15]; first compound 0.8 µM): 0.736
relative viability ([15]; first compound 8 µM): 0.751
relative viability ([16]; first compound 0.08 µM): 0.345
relative viability ([16]; first compound 0.253 µM): 0.547
relative viability ([16]; first compound 0.8 µM): 0.269
relative viability ([16]; first compound 2.53 µM): 0.312
relative viability ([16]; first compound 8 µM): 0.318
relative viability ([17]; first compound 0.08 µM): 0.962
relative viability ([17]; first compound 0.253 µM): 0.85
relative viability ([17]; first compound 0.8 µM): 1.01
relative viability ([17]; first compound 2.53 µM): 0.908
relative viability ([17]; first compound 8 µM): 1.18
relative viability ([18]; first compound 0.08 µM): 0.755
relative viability ([18]; first compound 0.253 µM): 0.799
relative viability ([18]; first compound 0.8 µM): 0.815
relative viability ([18]; first compound 2.53 µM): 0.71
relative viability ([18]; first compound 8 µM): 0.856
relative viability ([19]; first compound 0.08 µM): 0.562
relative viability ([19]; first compound 0.253 µM): 0.801
relative viability ([19]; first compound 0.8 µM): 0.752
relative viability ([19]; first compound 2.53 µM): 0.603
relative viability ([19]; first compound 8 µM): 0.72
relative viability ([20]; first compound 0.08 µM): 0.967
relative viability ([20]; first compound 0.253 µM): 1.33
relative viability ([20]; first compound 0.8 µM): 0.951
relative viability ([20]; first compound 2.53 µM): 0.903
relative viability ([20]; first compound 8 µM): 1.06
relative viability ([21]; first compound 0.08 µM): 0.593
relative viability ([21]; first compound 0.253 µM): 0.82
relative viability ([21]; first compound 0.8 µM): 0.59
relative viability ([21]; first compound 2.53 µM): 0.57
relative viability ([21]; first compound 8 µM): 0.49
